Laboratory results as given in US8003796B2, “Pyridone GPR119 G protein-coupled receptor agonists” (Bristol-Myers Squibb Company, priority 2007, dated 2011).
Structures can show the parent of a compound that is named as a salt.

Target: T1, human GPR119 (Homo sapiens, UniProt Q8TDV5)
T1 construct: expressed in transfected cells; host or cells: Flp-In-T-REx 293 (tetracycline-inducible)
T1 sequence (Q8TDV5 1-335): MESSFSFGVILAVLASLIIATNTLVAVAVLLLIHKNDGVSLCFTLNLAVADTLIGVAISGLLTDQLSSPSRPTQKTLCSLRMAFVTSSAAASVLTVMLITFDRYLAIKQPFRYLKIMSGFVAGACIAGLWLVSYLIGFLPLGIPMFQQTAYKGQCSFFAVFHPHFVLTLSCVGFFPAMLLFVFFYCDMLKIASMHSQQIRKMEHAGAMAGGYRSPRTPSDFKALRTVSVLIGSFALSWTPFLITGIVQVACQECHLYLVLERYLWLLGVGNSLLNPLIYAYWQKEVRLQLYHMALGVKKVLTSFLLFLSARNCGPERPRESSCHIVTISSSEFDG
Assay: Human Tet-inducible cAMP assay
Type: cell-based
Details: Flp-In-T-REx 293 tetracycline inducible cells expressing GPR119; cAMP by Hit Hunter cAMP kit; 1 hour at 37° C.; read-out: hGPR119 EC50
Description: The in vitro modulation of recombinant human GPR119 was determined as follows.
Human Tet-Inducible cAMP Assay
Cell lines expressing GPR119 are generated using the Flp-In-T-REx 293 tetracycline inducible gene expression system are cultured in culture medium comprising the following components: DMEM#11965, 10% FBS, 2 mM L-glutamine, 200 ug/ml Hygromycin B, and 15 ug/ml blasticidin.
For cAMP assays, cells are plated on 96 well plates (e.g., BD Falcon: REF 353948, black side, clear bottom, TC surface) at a density of about 4.5×10^4 cells per well in growth medium containing 1.0 ug/ml tetracycline (1.0 mg/ml stock). The cells are then incubated for 48 hours at 37° C.
Following the incubation, the growth medium is removed from the wells and the wells rinsed (once) with the assay buffer included in the Hit Hunter cAMP kit (100 μl/well). Following the wash, 20 μl of assay buffer is added to each well, followed by addition of 10 μl of a 3× concentration compound working solution. The solution is then mixed. The final concentration range of compound is from about 10^−5M to about 10^−11M. The reagents are then incubated at 37° C. at 5% CO2 for 1 hour.
The manufacturer's protocol may be followed for cAMP determination. The Hit Hunter cAMP kit protocol is outlined for the HIT-T15 cAMP assays described above.
Compounds of the present invention were tested in the Human Tet-inducible cAMP assay described immediately above and the results shown in Table 1 below were obtained.

Structure (SMILES) | EC50 [nM]
COc1cccc(-n2ccc(OC3CCN(C(=O)OC(C)C)CC3)cc2=O)c1 [Example 12, isopropyl 4-(1-(3-methoxyphenyl)-2-oxo-1,2-dihydropyridin-4-yloxy)piperidine-1-carboxylate] | 3490
CC(C)OC(=O)N1[C@@H]2CC[C@@H]1CC(Oc1ccn(-c3ccc(S(C)(=O)=O)cc3)c(=O)c1)C2 (stereo partly drawn) [Example 27, (3-endo)-isopropyl 3-(1-(4-(methylsulfonyl)phenyl)-2-oxo-1,2-dihydropyridin-4-yloxy)-8-azabicyclo[3.2.1]octane-8-carboxylate] | 3500
CS(=O)(=O)c1ccc(-n2ccc(OC3CCN(c4nc5ccccc5o4)CC3)cc2=O)cc1 [Example 51, 4-(1-(benzo[d]oxazol-2-yl)piperidin-4-yloxy)-1-(4-(methylsulfonyl)phenyl)pyridin-2(1H)-one] | 314
CS(=O)(=O)c1ccc(-n2ccc(OC3CCN(C(=O)c4cnc5ccccc5n4)CC3)cc2=O)cc1 [Example 78, 1-(4-(methylsulfonyl)phenyl)-4-(1-(quinoxaline-2-carbonyl)piperidin-4-yloxy)pyridin-2(1H)-one] | 303
CS(=O)(=O)c1ccc(-n2ccc(OC3CCN(S(=O)(=O)CC(F)(F)F)CC3)cc2=O)cc1 [Example 82, 1-(4-(methylsulfonyl)phenyl)-4-(1-(2,2,2-trifluoroethylsulfonyl)piperidin-4-yloxy)pyridin-2(1H)-one] | 4030
CS(=O)(=O)c1ccc(-n2ccc(OC3CCN(S(C)(=O)=O)CC3)cc2=O)cc1 [Example 83, 1-(4-(methylsulfonyl)phenyl)-4-(1-(methylsulfonyl)piperidin-4-yloxy)pyridin-2(1H)-one] | 4340
CS(=O)(=O)c1ccc(-n2ccc(OC3CCN(S(=O)(=O)C4CC4)CC3)cc2=O)cc1 [Example 84, 4-(1-(cyclopropylsulfonyl)piperidin-4-yloxy)-1-(4-(methylsulfonyl)phenyl)pyridin-2(1H)-one] | 3270
CS(=O)(=O)c1ccc(-n2ccc(OC3CCN(S(=O)(=O)c4ccccn4)CC3)cc2=O)cc1 [Example 86, 1-(4-(methylsulfonyl)phenyl)-4-(1-(pyridin-2-ylsulfonyl)piperidin-4-yloxy)pyridin-2(1H)-one] | 3520
CCCOC(=O)N1CCC(Oc2ccn(-c3ccc(S(C)(=O)=O)cc3)c(=O)c2)CC1 [Example 91, propyl 4-(1-(4-(methylsulfonyl)phenyl)-2-oxo-1,2-dihydropyridin-4-yloxy)piperidine-1-carboxylate] | 304
CCCc1ccc(OC(=O)N2CCC(Oc3ccn(-c4ccc(S(C)(=O)=O)cc4)c(=O)c3)CC2)cn1 [Example 153, 6-propylpyridin-3-yl 4-(1-(4-(methylsulfonyl)phenyl)-2-oxo-1,2-dihydropyridin-4-yloxy)piperidine-1-carboxylate, TFA salt] | 273
Cc1cc(OC2CCN(c3ncc(C4CC4)cn3)CC2)cc(=O)n1-c1ccc(S(C)(=O)=O)cc1 [Example 162, 4-(1-(5-cyclopropylpyrimidin-2-yl)piperidin-4-yloxy)-6-methyl-1-(4-(methylsulfonyl)phenyl)pyridin-2(1H)-one] | 5000
CCCc1cnc(N2CCC(Oc3cc(C)n(-c4ccc(S(C)(=O)=O)cc4)c(=O)c3)CC2)nc1 [Example 165, 6-methyl-1-(4-(methylsulfonyl)phenyl)-4-(1-(5-propylpyrimidin-2-yl)piperidin-4-yloxy)pyridin-2(1H)-one] | 5000
CC(C)OC(=O)N1CCC(Oc2ccn(-c3ccc(S(C)(=O)=O)nc3)c(=O)c2)CC1 [Example 189, isopropyl 4-(1-(6-(methylsulfonyl)pyridin-3-yl)-2-oxo-1,2-dihydropyridin-4-yloxy)piperidine-1-carboxylate] | 7140
CC(C)OC(=O)N1CCC(Oc2ccn(-c3cncnc3)c(=O)c2)CC1 [Example 191, isopropyl 4-(2-oxo-1-(pyrimidin-5-yl)-1,2-dihydropyridin-4-yloxy)piperidine-1-carboxylate] | 5090
CCCc1cnc(N2CCC(Oc3ccn(-c4ccc(C#N)c(F)c4)c(=O)c3)CC2)nc1 [Example 199, 2-fluoro-4-(2-oxo-4-(1-(5-propylpyrimidin-2-yl)piperidin-4-yloxy)pyridin-1(2H)-yl)benzonitrile] | 7
Cc1nc(S(C)(=O)=O)ccc1-n1ccc(OC2CCN(C(=O)OC(C)C)CC2)cc1=O [Example 207, isopropyl 4-(1-(2-methyl-6-(methylsulfonyl)pyridin-3-yl)-2-oxo-1,2-dihydropyridin-4-yloxy)piperidine-1-carboxylate, TFA salt] | 7070
CC(C)OC(=O)N1CCC(Oc2ccn(-c3ccc(NC(=O)C(C)C)cc3)c(=O)c2)CC1 [Example 209, isopropyl 4-(1-(4-isobutyramidophenyl)-2-oxo-1,2-dihydropyridin-4-yloxy)piperidine-1-carboxylate] | 3390

The remaining molecules from weak to strong by EC50, led by results:

EC50 [nM] | Structure (SMILES)
293 | CCOc1ccc(OC(=O)N2CCC(Oc3ccn(-c4ccc(S(C)(=O)=O)cc4)c(=O)c3)CC2)cc1 [Example 125, 4-ethoxyphenyl 4-(1-(4-(methylsulfonyl)phenyl)-2-oxo-1,2-dihydropyridin-4-yloxy)piperidine-1-carboxylate]
293 | CCCc1cnc(N2CCC(Oc3ccn(-c4ccc(S(C)(=O)=O)nc4C)c(=O)c3)CC2)nc1 [Example 206, 1-(2-methyl-6-(methylsulfonyl)pyridin-3-yl)-4-(1-(5-propylpyrimidin-2-yl)piperidin-4-yloxy)pyridin-2(1H)-one, TFA salt]
276 | CCCc1cnc(N2CCC(Oc3ccn(-c4ccc(C(N)=O)cc4F)c(=O)c3)CC2)nc1 [Example 179, 3-fluoro-4-(2-oxo-4-(1-(5-propylpyrimidin-2-yl)piperidin-4-yloxy)pyridin-1(2H)-yl)benzamide, TFA salt]
275 | CS(=O)(=O)c1ccc(-n2ccc(OC3CCN(C(=O)CCc4ccccc4)CC3)cc2=O)cc1 [Example 74, 1-(4-(methylsulfonyl)phenyl)-4-(1-(3-phenylpropanoyl)piperidin-4-yloxy)pyridin-2(1H)-one]
274 | Cc1cc(Br)ccc1OC(=O)N1CCC(Oc2ccn(-c3ccc(S(C)(=O)=O)cc3)c(=O)c2)CC1 [Example 143, 4-bromo-2-methylphenyl 4-(1-(4-(methylsulfonyl)phenyl)-2-oxo-1,2-dihydropyridin-4-yloxy)piperidine-1-carboxylate]
265 | CCCc1cnc(N2CCC(Oc3ccn(-c4ccc(S(C)(=O)=O)cc4C)c(=O)c3)CC2)nc1 [Example 178, 1-(2-methyl-4-(methylsulfonyl)phenyl)-4-(1-(5-propylpyrimidin-2-yl)piperidin-4-yloxy)pyridin-2(1H)-one]
261 | Cc1cnc(N2CCC(Oc3ccn(-c4ccc(S(C)(=O)=O)cc4)c(=O)c3)CC2)nc1 [Example 108, 4-(1-(5-methylpyrimidin-2-yl)piperidin-4-yloxy)-1-(4-(methylsulfonyl)phenyl)pyridin-2(1H)-one]
250 | CCc1cnc(N2CCC(Oc3ccn(-c4cccnc4)c(=O)c3)CC2)nc1 [Example 133, 4-(1-(5-ethylpyrimidin-2-yl)piperidin-4-yloxy)-1-(pyridin-3-yl)pyridin-2(1H)-one]
241 | CCCc1cnc(N2CCC(Oc3ccn(-c4cncnc4)c(=O)c3)CC2)nc1 [Example 192, 4-(1-(5-propylpyrimidin-2-yl)piperidin-4-yloxy)-1-(pyrimidin-5-yl)pyridin-2(1H)-one]
8 | CCCc1cnc(N2CCC(Oc3ccn(-c4ccc(S(C)(=O)=O)c(F)c4)c(=O)c3)CC2)nc1 [Example 175, 1-(3-fluoro-4-(methylsulfonyl)phenyl)-4-(1-(5-propylpyrimidin-2-yl)piperidin-4-yloxy)pyridin-2(1H)-one]
8 | CCCc1cnc(N2CCC(Oc3ccn(-c4ccc(C#N)cc4F)c(=O)c3)CC2)nc1 [Example 177, 3-fluoro-4-(2-oxo-4-(1-(5-propylpyrimidin-2-yl)piperidin-4-yloxy)pyridin-1(2H)-yl)benzonitrile, TFA salt]
5 | CCCc1cnc(N2CCC(Oc3cc(=O)n(-c4ccc(S(C)(=O)=O)cc4)cc3Cl)CC2)nc1 [Example 194, 5-chloro-1-(4-(methylsulfonyl)phenyl)-4-(1-(5-propylpyrimidin-2-yl)piperidin-4-yloxy)pyridin-2(1H)-one, TFA salt]
